Test results: paper PMC8049461, “The anti-depressant effects of a novel PDE4 inhibitor derived from resveratrol” (Pharmaceutical Biology, 2021)

Assays:
[1] = test system: chronic unpredictable stress mice; assay: Forced swimming test (FST) after chronic unpredictable stress; assay type: in vivo, male ICR mice; conditions: fluoxetine 5 mg/kg i.p., CUS mice, p < 0.05
Method: Male ICR mice, weighing between 22–25 g, were obtained from the Animal Centre at Changzhou University. All experiments were carried out according to the National Institute of Health Guide for Care and Use of Laboratory Animals (1996) and were approved by the Institutional Animal Care and Use Committee of Changzhou University (NO. Y20180023). Fluoxetine and resveratrol were purchased from Sigma Chemical Co. (St Louis, MO). For animal behavioural tests, RES003 and rolipram were dissolved in saline containing 5% DMSO, 5% Solutol and 90% saline. The positive control drug fluoxetine was dissolved simply in saline. […]
(§1) After the chronic un-predictable stress (CUS) procedure, sucrose preference test was assessed on the following day, and then forced swimming test (FST) was carried out the next day. […]
According to the previous description, animals were individually placed in glass cylinders (25 cm height, 10 cm diameter) containing 10 cm depth of water at 24 ± 1 °C for 6 min, allowing for free swimming (Porsolt et al. [1978]). […] A mouse was determined to be immobile when there were only small movements necessary to keep its head above water. The immobility time was recorded during the 5 min testing period.

PDE1 = assay: PDE enzymatic assay (radioactive tracer, 3H-cAMP/3H-cGMP); assay type: biochemical; conditions: 3H-cAMP or 3H-cGMP substrate, 24 °C, 30 min; read-out: IC50 against PDE1
Method: (§2) All the enzymatic activities of PDEs were assayed by using ^3H- cyclic guanosine monophosphate (cGMP) or ^3H-cAMP as the substrate. PDEs were firstly incubated with the reaction mixture of 50 mmol/L Tris-hydrogen chloride (HCl), pH 7.8, 10 mmol/L magnesium chloride (MgCl2) and ^3H-cAMP or ^3H-cGMP (40, 000 cpm/assay) at 24 °C for 30 min. Then, the reaction was terminated by addition of zinc sulfate and barium hydroxide. Activity of test compounds was assessed by measuring the amount of ^3H-cGMP or ^3H-cAMP resulting from enzyme cleavage. The reaction product ^3H-AMP or ^3H-GMP was precipitated by adding barium sulfate, while unreacted ^3H-cAMP or ^3H-cGMP remained in the supernatant. Radioactivity in the supernatant was measured in 2.5 mL of ultima gold liquid scintillation. At least eight concentrations of inhibitors (0.05–500 μM) were used in the presence of suitable substrates for the measurement of half maximal inhibitory concentration IC50 values, which were calculated by non-linear regression. Each measurement was repeated three times.

PDE4 = assay: as above; assay type: biochemical; conditions: for IC50: 3H-cAMP or 3H-cGMP substrate, 24 °C, 30 min, read-out: IC50 against PDE4
Method: as §2

PDE2 = PDE2 (Homo sapiens, UniProt O00408); assay: as above; assay type: biochemical; conditions: 3H-cAMP or 3H-cGMP substrate, 24 °C, 30 min; read-out: IC50 against PDE2
PDE2, sequence (O00408 whole entry): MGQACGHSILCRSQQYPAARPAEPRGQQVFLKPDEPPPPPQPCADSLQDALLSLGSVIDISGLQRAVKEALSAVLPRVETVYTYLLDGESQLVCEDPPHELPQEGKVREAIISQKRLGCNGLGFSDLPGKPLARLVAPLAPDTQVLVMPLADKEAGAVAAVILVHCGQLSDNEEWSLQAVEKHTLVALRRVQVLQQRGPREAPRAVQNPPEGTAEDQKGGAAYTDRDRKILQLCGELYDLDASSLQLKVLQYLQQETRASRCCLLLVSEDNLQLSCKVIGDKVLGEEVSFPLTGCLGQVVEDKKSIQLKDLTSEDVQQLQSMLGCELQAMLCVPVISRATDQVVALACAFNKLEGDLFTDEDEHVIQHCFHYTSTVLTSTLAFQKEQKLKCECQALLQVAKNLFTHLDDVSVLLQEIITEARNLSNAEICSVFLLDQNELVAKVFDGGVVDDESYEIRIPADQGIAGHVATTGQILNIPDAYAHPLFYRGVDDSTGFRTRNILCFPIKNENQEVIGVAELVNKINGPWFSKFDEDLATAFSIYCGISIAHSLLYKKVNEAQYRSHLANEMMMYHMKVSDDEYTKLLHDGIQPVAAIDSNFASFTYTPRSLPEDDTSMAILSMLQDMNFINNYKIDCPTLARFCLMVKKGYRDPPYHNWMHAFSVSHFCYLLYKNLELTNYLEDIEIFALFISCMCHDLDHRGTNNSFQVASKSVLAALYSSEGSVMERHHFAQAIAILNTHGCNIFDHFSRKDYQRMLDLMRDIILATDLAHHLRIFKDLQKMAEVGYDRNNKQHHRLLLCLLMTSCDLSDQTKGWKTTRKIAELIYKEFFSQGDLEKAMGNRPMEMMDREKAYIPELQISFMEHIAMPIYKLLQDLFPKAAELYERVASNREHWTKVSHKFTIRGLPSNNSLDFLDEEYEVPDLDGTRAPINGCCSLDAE
Method: as §2

PDE3 = assay: as above; assay type: biochemical; conditions: 3H-cAMP or 3H-cGMP substrate, 24 °C, 30 min; read-out: IC50 against PDE3
Method: as §2

PDE5 = PDE5 (Homo sapiens, UniProt O76074); assay: as above; assay type: biochemical; conditions: 3H-cAMP or 3H-cGMP substrate, 24 °C, 30 min; read-out: IC50 against PDE5
Method: as §2

pCREB/CREB = assay: Western blot of pCREB/CREB in brain tissue of CUS mice; assay type: in vivo, male ICR mice; conditions: RES003 10 mg/kg, vs model group, p < 0.05
Method: (§3) Male ICR mice, weighing between 22–25 g, were obtained from the Animal Centre at Changzhou University. All experiments were carried out according to the National Institute of Health Guide for Care and Use of Laboratory Animals (1996) and were approved by the Institutional Animal Care and Use Committee of Changzhou University (NO. Y20180023). Fluoxetine and resveratrol were purchased from Sigma Chemical Co. (St Louis, MO). For animal behavioural tests, RES003 and rolipram were dissolved in saline containing 5% DMSO, 5% Solutol and 90% saline. The positive control drug fluoxetine was dissolved simply in saline. Mice were given intra-gastric (i.g.) administration (RES003: 2.5, 5.0 and 10 mg/kg) or intraperitoneal (i.p.) injections (fluoxetine: 5 mg/kg and rolipram: 10 mg/kg) in a volume of 10 mL/kg body weight.
(§4) The chronic unpredictable stress procedure was carried out as described previously with minor modification (Polster and Fiskum [2004]). […]
as §1
(§5) The brain tissues were dissected and stored at −80 °C until analysis after mice were sacrificed. […] The detection and quantification of specific bands were performed using a fluorescence scanner and ‘Image-Pro’ software. […]

BDNF = assay: Western blot of BDNF expression in brain tissue of CUS mice; assay type: in vivo, male ICR mice; conditions: RES003 5 and 10 mg/kg, vs model group, p < 0.05 and 0.01
Method: as §3, §4, §1, §5

mice = assay: Locomotor activity (LA) test, open-field chamber; assay type: in vivo, male ICR mice; conditions: RES003 at the dose that significantly reduced immobility response, 30 min before test
Method: as §3
LA test was assessed using an open-field chamber according to previous procedure (Li et al. [2014]). The floor of the chamber was divided into 16 identical squares. Mice were individually placed in the centre of the chamber and allowed to acclimatize for 15 min. Their paws were contacted or disconnected the active bars which can produce random configurations. The locomotor counts of mice were measured by counting the number of line crossings in the following 10 min.

[2] = test system: chronic unpredictable stress mice; assay: Sucrose preference test (SPT) after chronic unpredictable stress; assay type: in vivo, male ICR mice; conditions: RES003 5 and 10 mg/kg (medium and large dose), once a day for 10 days, CUS mice, vs model group, p < 0.01
Method: as §3, §4, §1
The SPT was performed according to the previous description with minor modification (Yu et al. [2013]). […] The sucrose preference was calculated as the ratio of the consumed sucrose solution to the total amount of liquid consumed.

Structure (SMILES) | immobility time in forced swimming test [1] | IC50 (PDE1) | IC50 (PDE4) | IC50 (PDE2) | IC50 (PDE3) | IC50 (PDE5) | ratio of pCREB/CREB in brain tissue (pCREB/CREB) | BDNF expression in brain tissue (BDNF) | locomotor activity (line crossings in 10 min) (mice) | selectivity for PDE4 over PDE1, PDE2, PDE3 and PDE5 (PDE4; ratio of IC50 values) | consumption of sugar water (sucrose preference) [2]
CNCCC(Oc1ccc(C(F)(F)F)cc1)c1ccccc1 (stereo not shown) [fluoxetine, Fluoxetine, reference compound] | significant anti-depressant-like effects | – | – | – | – | – | – | – | – | – | –
Oc1ccc(/C=C/c2cc(O)cc(O)c2)cc1 [resveratrol, Resveratrol] | – | 8.7 ± 1.1 µM | 18.8 µM | > 100 µM | 12.7 ± 2.1 µM | > 100 µM | – | – | – | – | –
Oc1ccc(-c2cc(-c3cc(O)cc(O)c3)n[nH]2)cc1 [RES003, 5-[5-(4-Hydroxyphenyl)-1H-pyrazol-3-yl]benzene-1,3-diol] | – | 92.6 ± 8.3 µM | 0.87 µM | > 100 µM | > 100 µM | > 100 µM | reversed | significantly upregulated | did not affect the locomotor activity | > 100 fold | significantly increase the consumption of sugar water
